The results in this text go back to ChEMBL document CHEMBL3102773, “The synthesis and comparative receptor binding affinities of novel, isomeric pyridoindolobenzazepine scaffolds” (Bioorg Med Chem Lett, 2014).

Assay [1] concerns the target 5-hydroxytryptamine receptor 2B (Homo sapiens, UniProt P41595).
Description: Displacement of [3H]LSD from 5-HT2B receptor (unknown origin)
Assay [2] deals with T1, Muscarinic acetylcholine receptor M2 (Homo sapiens, UniProt P08172).
T1 sequence (P08172 whole entry): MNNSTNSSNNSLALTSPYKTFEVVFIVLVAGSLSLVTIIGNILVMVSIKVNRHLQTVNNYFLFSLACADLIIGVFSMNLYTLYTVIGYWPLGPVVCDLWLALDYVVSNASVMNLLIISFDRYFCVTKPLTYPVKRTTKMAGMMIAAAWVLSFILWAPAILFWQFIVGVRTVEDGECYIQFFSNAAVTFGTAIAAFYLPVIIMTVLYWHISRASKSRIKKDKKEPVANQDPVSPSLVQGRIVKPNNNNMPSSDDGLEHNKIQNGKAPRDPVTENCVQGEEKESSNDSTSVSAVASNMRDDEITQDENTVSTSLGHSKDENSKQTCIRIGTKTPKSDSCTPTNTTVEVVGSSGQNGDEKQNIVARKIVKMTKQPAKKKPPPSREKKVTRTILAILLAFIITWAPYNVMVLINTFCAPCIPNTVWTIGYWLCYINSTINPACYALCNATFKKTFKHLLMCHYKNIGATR
As to the kind of experiment: Binding affinity to muscarinic M2 receptor (unknown origin) by radioligand displacement assay. (In general: Displacement assays read how much labelled ligand stays bound in the presence of the test substance.)

Assay [3] deals with Histamine H3 receptor (Homo sapiens, UniProt Q9Y5N1). As to the kind of experiment: Binding affinity to histamine H3 receptor (unknown origin) by radioligand displacement assay.
The target of assay [4] is D(1A) dopamine receptor (Homo sapiens, UniProt P21728). Put plainly: Binding affinity to dopamine D1 receptor (unknown origin) by radioligand displacement assay.
In assay [5] the target is Delta-type opioid receptor (Homo sapiens, UniProt P41143). As to the kind of experiment: Binding affinity to delta opioid receptor (unknown origin) by radioligand displacement assay.
Assay [6] deals with Beta-2 adrenergic receptor (Homo sapiens, UniProt P07550). Put plainly: Binding affinity to adrenergic beta2 receptor (unknown origin) by radioligand displacement assay.
Assay [7] has as its target Sodium-dependent noradrenaline transporter (Homo sapiens, UniProt P23975). As to the kind of experiment: Displacement of [3H]Nisoxetine from norepinephrine transporter (unknown origin).
Assay [8] deals with Sodium-dependent dopamine transporter (Homo sapiens, UniProt Q01959). Put plainly: Binding affinity to dopamine transporter (unknown origin) by radioligand displacement assay.
Assay [9] has as its target D(3) dopamine receptor (Homo sapiens, UniProt P35462).
Description: Displacement of [3H]N-Methylspiperone from dopamine D3 receptor (unknown origin)
Assay [10] has as its target T2, D(4) dopamine receptor (Homo sapiens, UniProt P21917).
T2 sequence (P21917 whole entry): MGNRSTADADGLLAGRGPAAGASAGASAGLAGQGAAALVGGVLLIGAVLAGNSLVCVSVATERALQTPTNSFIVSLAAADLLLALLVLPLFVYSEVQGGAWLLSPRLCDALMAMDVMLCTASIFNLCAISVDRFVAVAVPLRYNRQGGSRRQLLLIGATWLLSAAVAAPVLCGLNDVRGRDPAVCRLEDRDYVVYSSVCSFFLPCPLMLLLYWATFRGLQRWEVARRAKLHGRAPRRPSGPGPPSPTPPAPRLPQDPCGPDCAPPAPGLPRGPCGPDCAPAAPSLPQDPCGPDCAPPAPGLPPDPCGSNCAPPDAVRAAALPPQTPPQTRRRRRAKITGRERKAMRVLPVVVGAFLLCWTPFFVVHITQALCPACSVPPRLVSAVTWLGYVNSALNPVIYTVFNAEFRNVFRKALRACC
Description: Displacement of [3H]N-Methylspiperone from dopamine D4 receptor (unknown origin)

The target in assay [11] is T3, Muscarinic acetylcholine receptor M4 (Homo sapiens, UniProt P08173).
T3 sequence (P08173 whole entry): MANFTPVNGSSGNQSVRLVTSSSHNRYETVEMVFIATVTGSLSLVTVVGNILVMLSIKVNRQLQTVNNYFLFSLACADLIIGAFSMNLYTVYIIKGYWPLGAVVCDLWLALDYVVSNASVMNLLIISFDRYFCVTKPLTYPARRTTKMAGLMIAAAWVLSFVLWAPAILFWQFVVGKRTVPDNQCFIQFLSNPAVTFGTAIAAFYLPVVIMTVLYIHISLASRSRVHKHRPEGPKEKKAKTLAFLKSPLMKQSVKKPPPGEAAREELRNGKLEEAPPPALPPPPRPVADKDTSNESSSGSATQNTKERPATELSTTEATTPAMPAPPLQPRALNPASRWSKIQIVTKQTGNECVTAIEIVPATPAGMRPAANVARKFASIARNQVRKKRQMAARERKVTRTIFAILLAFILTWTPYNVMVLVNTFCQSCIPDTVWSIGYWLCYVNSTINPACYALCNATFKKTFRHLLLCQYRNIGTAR
As to the kind of experiment: Binding affinity to muscarinic M4 receptor (unknown origin) by radioligand displacement assay.

The target of assay [12] is Mu-type opioid receptor (Homo sapiens, UniProt P35372). Put plainly: Binding affinity to mu opioid receptor (unknown origin) by radioligand displacement assay.
The target in assay [13] is Beta-3 adrenergic receptor (Homo sapiens, UniProt P13945). As to the kind of experiment: Binding affinity to adrenergic beta3 receptor (unknown origin) by radioligand displacement assay.
Assay [14] deals with Beta-1 adrenergic receptor (Homo sapiens, UniProt P08588). As to the kind of experiment: Binding affinity to adrenergic beta1 receptor (unknown origin) by radioligand displacement assay.
Assay [15] has as its target T4, 5-hydroxytryptamine receptor 3A (Homo sapiens, UniProt P46098).
T4 sequence (P46098 whole entry): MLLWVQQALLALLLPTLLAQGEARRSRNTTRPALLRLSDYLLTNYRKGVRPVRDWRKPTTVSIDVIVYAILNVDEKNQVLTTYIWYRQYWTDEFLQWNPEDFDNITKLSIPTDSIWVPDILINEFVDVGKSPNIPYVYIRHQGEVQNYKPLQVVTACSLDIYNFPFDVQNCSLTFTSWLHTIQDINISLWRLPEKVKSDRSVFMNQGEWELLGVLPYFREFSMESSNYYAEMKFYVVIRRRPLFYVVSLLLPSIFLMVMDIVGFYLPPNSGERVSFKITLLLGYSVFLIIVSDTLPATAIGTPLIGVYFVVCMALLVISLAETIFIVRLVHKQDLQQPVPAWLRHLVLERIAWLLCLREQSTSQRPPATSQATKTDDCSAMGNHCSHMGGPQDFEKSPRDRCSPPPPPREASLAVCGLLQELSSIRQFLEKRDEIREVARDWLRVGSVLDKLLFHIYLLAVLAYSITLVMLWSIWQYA
Description: Displacement of [3H]GR65630 from 5-HT3 receptor (unknown origin)

Assay [16] has as its target Sigma non-opioid intracellular receptor 1 (Homo sapiens, UniProt Q99720). As to the kind of experiment: Displacement of [3H](+)Pentazocine from sigma 1 receptor (unknown origin).
Assay [17] deals with Histamine H2 receptor (Homo sapiens, UniProt P25021).
Assay [18] addresses Sodium-dependent serotonin transporter (Homo sapiens, UniProt P31645).
Assay [19] concerns the target Muscarinic acetylcholine receptor M1 (Homo sapiens, UniProt P11229).
Description: Displacement of [3H]QNB from muscarinic M1 receptor (unknown origin)
In assay [20] the target is Kappa-type opioid receptor (Homo sapiens, UniProt P41145). As to the kind of experiment: Displacement of [3H]U69593 from kappa opioid receptor (unknown origin).
Assay [21] deals with 5-hydroxytryptamine receptor 1E (Homo sapiens, UniProt P28566).
Description: Displacement of [3H]5HT from 5-HT1E receptor (unknown origin)
Assay [22] has as its target 5-hydroxytryptamine receptor 5A (Homo sapiens, UniProt P47898).
Description: Displacement of [3H]LSD from 5-HT5A receptor (unknown origin)
Assay [23] deals with Alpha-1B adrenergic receptor (Homo sapiens, UniProt P35368).
Description: Displacement of [125I]HEAT from adrenergic alpha1B receptor (unknown origin)
Assay [24] deals with Muscarinic acetylcholine receptor M5 (Homo sapiens, UniProt P08912).
Description: Displacement of [3H]QNB from muscarinic M5 receptor (unknown origin)
Assay [25] concerns the target 5-hydroxytryptamine receptor 2C (Homo sapiens, UniProt P28335).
Description: Displacement of [3H]Mesulergine from 5-HT2C receptor (unknown origin)
Assay [26] deals with D(1B) dopamine receptor (Homo sapiens, UniProt P21918).
Description: Displacement of [3H]SCH23390 from dopamine D5 receptor (unknown origin)
Assay [27] addresses Muscarinic acetylcholine receptor M3 (Homo sapiens, UniProt P20309).
Description: Displacement of [3H]QNB from muscarinic M3 receptor (unknown origin)
Assay [28] concerns the target Alpha-1A adrenergic receptor (Homo sapiens, UniProt P35348).
The target in assay [29] is Alpha-1D adrenergic receptor (Homo sapiens, UniProt P25100).
The target of assay [30] is D(2) dopamine receptor (Homo sapiens, UniProt P14416). Put plainly: Displacement of [3H]N-Methylspiperone from dopamine D2 receptor (unknown origin).
Assay [31] has as its target 5-hydroxytryptamine receptor 7 (Homo sapiens, UniProt P34969).
Description: Displacement of [3H]LSD from 5-HT7 receptor (unknown origin)
Assay [32] addresses Alpha-2B adrenergic receptor (Homo sapiens, UniProt P18089).
Description: Displacement of [125I]Clonidine from adrenergic alpha2B receptor (unknown origin)
Assay [33] deals with 5-hydroxytryptamine receptor 1A (Homo sapiens, UniProt P08908). Put plainly: Displacement of [3H]WAY100635 from 5-HT1A receptor (unknown origin).
In assay [34] the target is Histamine H1 receptor (Homo sapiens, UniProt P35367).
Description: Displacement of [3H]Pyrilamine from histamine H1 receptor (unknown origin)
Assay [35] addresses Alpha-2C adrenergic receptor (Homo sapiens, UniProt P18825).
Description: Displacement of [125I]Clonidine from adrenergic alpha2C receptor (unknown origin)
For assay [36], the target named is 5-hydroxytryptamine receptor 6 (Homo sapiens, UniProt P50406).
Description: Displacement of [3H]LSD from 5-HT6 receptor (unknown origin)
Assay [37] concerns the target 5-hydroxytryptamine receptor 1D (Homo sapiens, UniProt P28221). As to the kind of experiment: Displacement of [3H]5-CT from 5-HT1D receptor (unknown origin).
Assay [38] deals with Alpha-2A adrenergic receptor (Homo sapiens, UniProt P08913).
Description: Displacement of [125I]Clonidine from adrenergic alpha2A receptor (unknown origin)
For assay [39], the target named is 5-hydroxytryptamine receptor 2A (Homo sapiens, UniProt P28223).
Description: Displacement of [3H]Ketanserin from 5-HT2A receptor (unknown origin)
In assay [40] the target is 5-hydroxytryptamine receptor 1B (Homo sapiens, UniProt P28222).
Description: Displacement of [3H]5-CT from 5-HT1B receptor (unknown origin)

Several values for one entry are separate records, joined by “and”; a condition that tells them apart may be missing. Equal entries are not always repeated. Structures can show the parent of a compound that is named as a salt.

Sequence of Mu-type opioid receptor (P35372 whole entry): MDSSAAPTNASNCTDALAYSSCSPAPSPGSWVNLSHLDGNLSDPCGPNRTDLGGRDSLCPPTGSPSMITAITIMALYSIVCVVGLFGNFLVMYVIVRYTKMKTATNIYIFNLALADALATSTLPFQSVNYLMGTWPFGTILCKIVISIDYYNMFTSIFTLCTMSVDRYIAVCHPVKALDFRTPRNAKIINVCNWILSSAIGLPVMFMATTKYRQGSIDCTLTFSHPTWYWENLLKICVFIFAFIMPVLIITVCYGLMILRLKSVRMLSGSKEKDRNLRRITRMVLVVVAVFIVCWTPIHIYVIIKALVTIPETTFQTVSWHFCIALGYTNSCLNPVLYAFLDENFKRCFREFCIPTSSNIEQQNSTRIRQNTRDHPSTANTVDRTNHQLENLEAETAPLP
Sequence of Sodium-dependent noradrenaline transporter (P23975 whole entry): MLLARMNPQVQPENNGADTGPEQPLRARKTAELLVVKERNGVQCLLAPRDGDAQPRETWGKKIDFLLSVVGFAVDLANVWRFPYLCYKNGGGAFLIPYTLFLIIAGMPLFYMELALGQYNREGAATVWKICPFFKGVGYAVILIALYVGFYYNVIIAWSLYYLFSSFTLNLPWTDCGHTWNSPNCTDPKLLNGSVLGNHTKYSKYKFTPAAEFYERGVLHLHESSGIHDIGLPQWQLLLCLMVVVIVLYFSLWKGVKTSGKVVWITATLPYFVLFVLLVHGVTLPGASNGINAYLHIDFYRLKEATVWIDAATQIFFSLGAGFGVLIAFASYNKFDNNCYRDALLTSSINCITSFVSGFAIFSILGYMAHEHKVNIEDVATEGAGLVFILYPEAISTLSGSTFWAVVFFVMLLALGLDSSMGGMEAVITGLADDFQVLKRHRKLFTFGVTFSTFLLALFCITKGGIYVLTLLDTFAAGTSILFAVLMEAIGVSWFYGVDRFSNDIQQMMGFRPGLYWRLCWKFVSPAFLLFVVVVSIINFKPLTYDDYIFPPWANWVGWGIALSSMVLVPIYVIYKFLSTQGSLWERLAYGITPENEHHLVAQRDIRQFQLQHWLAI
Sequence of D(1A) dopamine receptor (P21728 whole entry): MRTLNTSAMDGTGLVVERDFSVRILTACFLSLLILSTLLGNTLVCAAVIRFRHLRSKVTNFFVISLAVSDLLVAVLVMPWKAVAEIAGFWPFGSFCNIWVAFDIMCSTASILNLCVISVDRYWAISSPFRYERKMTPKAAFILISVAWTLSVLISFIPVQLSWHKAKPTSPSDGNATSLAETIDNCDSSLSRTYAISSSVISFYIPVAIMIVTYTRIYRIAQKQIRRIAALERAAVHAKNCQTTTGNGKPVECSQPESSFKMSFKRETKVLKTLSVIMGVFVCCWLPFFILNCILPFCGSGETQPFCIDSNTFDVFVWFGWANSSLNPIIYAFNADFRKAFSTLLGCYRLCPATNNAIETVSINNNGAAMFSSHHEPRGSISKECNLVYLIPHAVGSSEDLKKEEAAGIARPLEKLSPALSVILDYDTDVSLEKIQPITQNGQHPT
Sequence of Delta-type opioid receptor (P41143 whole entry): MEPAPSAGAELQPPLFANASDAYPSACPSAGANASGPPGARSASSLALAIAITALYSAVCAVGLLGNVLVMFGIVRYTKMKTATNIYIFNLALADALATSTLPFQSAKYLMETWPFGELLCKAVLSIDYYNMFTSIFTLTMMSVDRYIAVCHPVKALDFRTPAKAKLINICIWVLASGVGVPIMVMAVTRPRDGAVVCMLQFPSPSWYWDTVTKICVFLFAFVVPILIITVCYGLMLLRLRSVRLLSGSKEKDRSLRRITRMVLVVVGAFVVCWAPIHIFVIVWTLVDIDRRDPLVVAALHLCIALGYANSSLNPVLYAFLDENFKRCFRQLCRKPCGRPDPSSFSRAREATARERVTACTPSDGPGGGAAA
Sequence of Sodium-dependent dopamine transporter (Q01959 whole entry): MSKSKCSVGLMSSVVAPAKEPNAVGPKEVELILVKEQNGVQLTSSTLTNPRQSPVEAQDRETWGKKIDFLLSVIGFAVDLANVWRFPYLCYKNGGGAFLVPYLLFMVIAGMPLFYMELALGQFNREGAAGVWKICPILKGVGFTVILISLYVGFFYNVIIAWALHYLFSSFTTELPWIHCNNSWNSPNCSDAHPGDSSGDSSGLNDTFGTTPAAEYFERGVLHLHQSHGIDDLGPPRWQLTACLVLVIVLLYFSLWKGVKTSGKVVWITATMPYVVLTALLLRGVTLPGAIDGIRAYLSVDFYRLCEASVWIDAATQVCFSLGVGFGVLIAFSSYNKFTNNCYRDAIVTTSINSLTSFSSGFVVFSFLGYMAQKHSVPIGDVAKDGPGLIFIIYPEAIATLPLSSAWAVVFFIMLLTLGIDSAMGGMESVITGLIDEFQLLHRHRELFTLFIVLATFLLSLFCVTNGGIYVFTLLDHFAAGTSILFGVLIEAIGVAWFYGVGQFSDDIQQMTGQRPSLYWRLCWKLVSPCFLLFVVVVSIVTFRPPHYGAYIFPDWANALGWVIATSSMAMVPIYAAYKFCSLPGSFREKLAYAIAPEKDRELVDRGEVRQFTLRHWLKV
Sequence of Histamine H3 receptor (Q9Y5N1 whole entry): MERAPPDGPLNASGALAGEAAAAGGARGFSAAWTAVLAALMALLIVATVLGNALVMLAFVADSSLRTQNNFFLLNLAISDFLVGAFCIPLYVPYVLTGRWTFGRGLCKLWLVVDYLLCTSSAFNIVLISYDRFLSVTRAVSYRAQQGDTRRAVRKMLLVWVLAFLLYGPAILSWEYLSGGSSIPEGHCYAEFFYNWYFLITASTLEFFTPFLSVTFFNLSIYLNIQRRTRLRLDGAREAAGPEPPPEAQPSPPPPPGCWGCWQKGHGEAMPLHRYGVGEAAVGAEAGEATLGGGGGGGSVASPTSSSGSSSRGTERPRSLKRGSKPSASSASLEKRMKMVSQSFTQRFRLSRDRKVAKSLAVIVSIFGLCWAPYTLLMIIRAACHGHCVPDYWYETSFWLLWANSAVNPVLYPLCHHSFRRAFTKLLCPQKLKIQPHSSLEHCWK
Sequence of Beta-1 adrenergic receptor (P08588 whole entry): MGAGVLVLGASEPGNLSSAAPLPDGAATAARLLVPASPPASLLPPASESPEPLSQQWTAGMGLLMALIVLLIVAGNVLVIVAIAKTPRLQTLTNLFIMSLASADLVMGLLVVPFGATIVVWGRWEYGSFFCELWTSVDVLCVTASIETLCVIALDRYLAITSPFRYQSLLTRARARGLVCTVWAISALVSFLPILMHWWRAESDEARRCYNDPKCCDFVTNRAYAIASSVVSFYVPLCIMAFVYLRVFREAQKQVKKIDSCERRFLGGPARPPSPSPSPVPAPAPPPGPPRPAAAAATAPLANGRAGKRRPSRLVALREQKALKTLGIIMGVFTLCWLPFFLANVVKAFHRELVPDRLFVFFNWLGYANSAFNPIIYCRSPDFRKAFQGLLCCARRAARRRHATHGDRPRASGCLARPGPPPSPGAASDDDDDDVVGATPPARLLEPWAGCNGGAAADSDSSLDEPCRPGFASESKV
Sequence of Beta-2 adrenergic receptor (P07550 whole entry): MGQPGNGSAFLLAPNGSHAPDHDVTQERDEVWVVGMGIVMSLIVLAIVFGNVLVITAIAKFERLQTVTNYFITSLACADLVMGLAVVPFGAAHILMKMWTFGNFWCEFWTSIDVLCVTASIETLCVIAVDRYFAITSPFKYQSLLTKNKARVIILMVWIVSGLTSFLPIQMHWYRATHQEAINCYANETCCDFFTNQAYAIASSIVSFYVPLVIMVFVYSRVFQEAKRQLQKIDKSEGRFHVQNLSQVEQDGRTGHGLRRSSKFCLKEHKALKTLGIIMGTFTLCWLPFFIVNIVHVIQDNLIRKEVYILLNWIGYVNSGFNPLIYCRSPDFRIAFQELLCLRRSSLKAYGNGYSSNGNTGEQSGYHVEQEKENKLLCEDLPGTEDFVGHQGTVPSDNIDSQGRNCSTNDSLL
Sequence of Histamine H2 receptor (P25021 whole entry): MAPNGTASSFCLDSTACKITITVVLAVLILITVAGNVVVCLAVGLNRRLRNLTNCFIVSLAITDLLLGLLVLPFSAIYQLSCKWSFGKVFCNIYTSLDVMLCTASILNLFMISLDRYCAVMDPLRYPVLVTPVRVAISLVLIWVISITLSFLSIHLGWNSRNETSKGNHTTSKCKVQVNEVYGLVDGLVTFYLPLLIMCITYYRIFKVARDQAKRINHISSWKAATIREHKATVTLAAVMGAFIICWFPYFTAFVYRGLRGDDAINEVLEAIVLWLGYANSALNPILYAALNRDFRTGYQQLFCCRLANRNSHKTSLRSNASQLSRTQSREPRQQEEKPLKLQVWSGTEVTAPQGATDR
Sequence of Beta-3 adrenergic receptor (P13945 whole entry): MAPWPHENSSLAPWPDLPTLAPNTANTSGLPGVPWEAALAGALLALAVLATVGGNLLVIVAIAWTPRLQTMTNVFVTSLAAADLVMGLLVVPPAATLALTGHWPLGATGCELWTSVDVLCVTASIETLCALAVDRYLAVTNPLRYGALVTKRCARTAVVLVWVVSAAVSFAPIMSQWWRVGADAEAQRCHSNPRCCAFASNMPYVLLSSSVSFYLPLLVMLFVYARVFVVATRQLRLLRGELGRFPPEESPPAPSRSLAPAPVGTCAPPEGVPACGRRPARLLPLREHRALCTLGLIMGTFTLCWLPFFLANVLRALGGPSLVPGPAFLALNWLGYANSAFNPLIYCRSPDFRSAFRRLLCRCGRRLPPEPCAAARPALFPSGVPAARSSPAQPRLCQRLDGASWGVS
Sequence of 5-hydroxytryptamine receptor 1E (P28566 whole entry): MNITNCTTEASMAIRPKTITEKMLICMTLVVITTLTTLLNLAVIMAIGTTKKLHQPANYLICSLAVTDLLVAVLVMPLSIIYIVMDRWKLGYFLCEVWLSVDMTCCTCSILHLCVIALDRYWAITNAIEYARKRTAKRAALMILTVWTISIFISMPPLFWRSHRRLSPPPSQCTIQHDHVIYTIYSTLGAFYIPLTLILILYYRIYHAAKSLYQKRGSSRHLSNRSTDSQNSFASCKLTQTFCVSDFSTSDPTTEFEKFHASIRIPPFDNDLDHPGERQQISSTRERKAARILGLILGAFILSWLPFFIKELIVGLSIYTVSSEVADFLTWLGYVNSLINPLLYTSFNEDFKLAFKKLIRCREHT

As for `Cn1ccc2cc3c(cc21)CCN3C(=O)Nc1cccnc1`, in [1], the Ki was determined as 0.012 µM.

Turning to `CN1CCc2c(c3cccc4c3n2-c2ccccc2CC4)C1`, the Ki in assay [2], in assay [3], in assay [4], in assay [5], in assay [6] and in assay [7] (read-out: pKi (converted)) was > 10 µM throughout. In addition, the Ki in [8], in assay [9], in assay [10], in assay [11], in assay [12] and in assay [13] was > 10 µM in each case. The Ki in assay [14] and in assay [15] was > 10 µM throughout.

Regarding `CN1CCc2c(c3cccc4c3n2Cc2ccccc2C4)C1`, the Ki in assay [16] (read-out: pKi (converted)), in assay [17], in assay [2], in [3], in assay [4] and in assay [5] was > 10 µM each time. Moreover, the Ki in assay [18] (read-out: pKi (converted)), in assay [19], in assay [20], in assay [21], in [22] and in assay [6] was > 10 µM throughout. The Ki was > 10 µM in assay [23]; 1.35 µM in [7] (read-out: Ki); > 10 µM in assay [24]; > 10 µM in [8]; > 10 µM in assay [25]; > 10 µM in [26]. Besides, the Ki in assay [10], in [27], in assay [11], in assay [12], in assay [28] (read-out: pKi (converted)) and in assay [29] (read-out: pKi (converted)) was > 10 µM each time. Also, the Ki in [13], in assay [14], in assay [30] and in assay [15] was > 10 µM in each case.

As for `CN1CCc2c(c3cccc4c3n2CCc2ccccc2-4)C1`, the Ki in assay [16] (read-out: Ki) was 0.22 µM; in [17] it was 0.943 µM; in assay [2], > 10 µM; in [31] it was 0.195 µM; in assay [3], > 10 µM; in assay [32] it was 4.35 µM. For the same compound, the Ki in assay [4] is > 10 µM; in [5], > 10 µM; in assay [33] it was > 10 µM; in [18] (read-out: Ki), 0.413 µM; in [19] it was > 10 µM; in assay [20], > 10 µM. For the same compound, the Ki is > 10 µM in [21]; > 10 µM in assay [22]; > 10 µM in [6]; > 10 µM in assay [34]; 0.446 µM in assay [35]; 2.24 µM in assay [23]. Moreover, the Ki was 1.95 µM in [7] (read-out: Ki); > 10 µM in assay [36]; > 10 µM in assay [24]; > 10 µM in assay [8]; > 10 µM in [25]; 0.625 µM in assay [37]. Moreover, the Ki in assay [38] is 0.407 µM; in [26], > 10 µM; in assay [9], > 10 µM; in [10], 1.38 µM and 1.23 µM; in [27] it was > 10 µM; in assay [11], > 10 µM. In addition, the Ki is > 10 µM in [12]; 0.104 µM in [1]; 0.286 µM in [28] (read-out: Ki); 0.293 µM in [29] (read-out: Ki); > 10 µM in assay [13]; > 10 µM in assay [14]. Further, the Ki is > 10 µM in assay [30], 0.529 µM in assay [15], 0.257 µM in assay [39] and 1.22 µM in assay [40].

As to `CN1CC2c3ccccc3Oc3ccc(Cl)cc3C2C1` (centres undefined) [ASENAPINE MALEATE], the Ki in [17] worked out at 0.0057 µM.
